Measurements reported in PubChem BioAssay AID330 (DTP/NCI, 2004).
“And” between values parts separate entries of the source, which are not always exact repeats. Equal values may be shown once. Inconclusive results and toxic doses are left out. The calls were made as follows: active = survival T/C of 150% or more; inactive = T/C below 125% in these data.

System: P388 leukemia ip, CD2F1 mice, survival T/C
Test: NCI In Vivo Anticancer Drug Screen. Data for tumor model P388 Leukemia (intraperitoneal) in CD2F1 (CDF1) mice
Conditions: endpoint: median survival time, higher = longer survival
Summary of the method: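 Mice carrying the transplanted tumor received test compound or vehicle. Survival was recorded in each group, and the value is the treated-group measurement divided by that of the vehicle-treated control group.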

[1] = dose: 50.0 mg/kg/injection, schedule: Q01DX009 (ip), vehicle: saline
[2] = dose: 100.0 mg/kg/injection, schedule: Q01DX009 (ip), vehicle: saline
[3] = dose: 12.5 mg/kg/injection, schedule: Q01DX009 (ip), vehicle: saline with Tween-80
[4] = dose: 25.0 mg/kg/injection, schedule: Q01DX009 (ip), vehicle: saline with Tween-80
[5] = dose: 50.0 mg/kg/injection, schedule: Q01DX009 (ip), vehicle: saline with Tween-80
[6] = dose: 60.0 mg/kg/injection, schedule: Q01DX005 (ip), vehicle: saline with Tween-80
[7] = dose: 120.0 mg/kg/injection, schedule: Q01DX005 (ip), vehicle: saline with Tween-80
[8] = dose: 240.0 mg/kg/injection, schedule: Q01DX005 (ip), vehicle: saline with Tween-80
[9] = dose: 50.0 mg/kg/injection, schedule: Q04DX003 (ip), vehicle: saline with Tween-80
[10] = dose: 100.0 mg/kg/injection, schedule: Q04DX003 (ip), vehicle: saline with Tween-80
[11] = dose: 50.0 mg/kg/injection, schedule: Q01DX005 (ip), vehicle: saline with Tween-80
[12] = dose: 100.0 mg/kg/injection, schedule: Q01DX005 (ip), vehicle: saline with Tween-80
[13] = dose: 200.0 mg/kg/injection, schedule: Q01DX005 (ip), vehicle: saline with Tween-80
[14] = dose: 12.5 mg/kg/injection, schedule: Q01DX009 (ip), vehicle: Klucel (hydroxypropylcellulose) (HPC)
[15] = dose: 25.0 mg/kg/injection, schedule: Q01DX009 (ip), vehicle: Klucel (hydroxypropylcellulose) (HPC)
[16] = dose: 50.0 mg/kg/injection, schedule: Q01DX009 (ip), vehicle: Klucel (hydroxypropylcellulose) (HPC)
[17] = dose: 100.0 mg/kg/injection, schedule: Q01DX009 (ip), vehicle: Klucel (hydroxypropylcellulose) (HPC)
[18] = dose: 200.0 mg/kg/injection, schedule: Q01DX009 (ip), vehicle: Klucel (hydroxypropylcellulose) (HPC)

Measured: T/C

CCc1cccc(CC)c1N1C(=O)CSCC1=O
inactive: [1] 99 % of control | [2] 93 % of control | dose: 200.0 mg/kg/injection, schedule: Q01DX009 (ip), vehicle: saline 100 % of control

CCCCCCCCCCCCCCCC[N+](C)(C)CCSc1ccccc1
inactive: dose: 1.56 mg/kg/injection, schedule: Q01DX009 (ip), vehicle: distilled water + alcohol 107 % of control and 108 % of control and 111 % of control | dose: 3.12 mg/kg/injection, schedule: Q01DX009 (ip), vehicle: distilled water + alcohol 110 % of control (2×) and 122 % of control | dose: 12.5 mg/kg/injection, schedule: Q01DX009 (ip), vehicle: distilled water + alcohol 98 % of control

CN(C)CCC(=O)/C=C/c1ccc(Cl)c(Cl)c1
inactive: dose: 6.25 mg/kg/injection, schedule: Q01DX009 (ip), vehicle: saline with Tween-80 92 % of control | [3] 101 % of control | [4] 113 % of control | [5] 116 % of control

Nc1ccccc1C(=O)CCc1c[nH]c2ccccc12
inactive: [6] 96 % of control | [7] 90 % of control | [8] 86 % of control

CCCCCCC(Cn1ccnc1)c1ccccc1Cl (stereo not drawn)
inactive: dose: 25.0 mg/kg/injection, schedule: Q04DX003 (ip), vehicle: saline with Tween-80 100 % of control | [9] 98 % of control | [10] 106 % of control

Cc1ccc(NC(=S)NCCc2ccccn2)cc1C
inactive: [3] 94 % of control | [4] 94 % of control | [5] 93 % of control | dose: 100.0 mg/kg/injection, schedule: Q01DX009 (ip), vehicle: saline with Tween-80 99 % of control and 92 % of control | dose: 200.0 mg/kg/injection, schedule: Q01DX009 (ip), vehicle: saline with Tween-80 100 % of control | dose: 400.0 mg/kg/injection, schedule: Q01DX009 (ip), vehicle: saline with Tween-80 105 % of control

O=COCC(C(=O)O)c1ccccc1 (stereo not drawn)
inactive: [11] 102 % of control | [12] 94 % of control | [13] 95 % of control

FC(F)(F)c1nnc(-c2ccc3ccccc3c2)nn1
inactive: [14] 104 % of control | [15] 103 % of control | [16] 103 % of control and 122 % of control | [17] 105 % of control and 97 % of control | [18] 100 % of control

CC(C)(C)c1cc2c(=O)o[s+]3oc(=O)c(c1)c23
inactive: dose: 6.25 mg/kg/injection, schedule: Q01DX009 (ip), vehicle: Klucel (hydroxypropylcellulose) (HPC) 107 % of control | [14] 104 % of control | [15] 111 % of control

C=CC[N+](CC=C)(CC=C)CC[N+](CC=C)(CC=C)CC=C
inactive: [3] 97 % of control | [4] 101 % of control | [5] 105 % of control

COC(=O)C1O[C@H]1c1cccc[n+]1[O-] (mixture of isomers)
inactive: dose: 25.0 mg/kg/injection, schedule: Q01DX005 (ip), vehicle: water 102 % of control | dose: 50.0 mg/kg/injection, schedule: Q01DX005 (ip), vehicle: water 101 % of control | dose: 100.0 mg/kg/injection, schedule: Q01DX005 (ip), vehicle: water 101 % of control | dose: 200.0 mg/kg/injection, schedule: Q01DX005 (ip), vehicle: water 103 % of control

COc1cc2c(cc1O)-c1c(cnn1-c1ccc([N+](=O)[O-])cc1[N+](=O)[O-])CCC2
inactive: dose: 100.0 mg/kg/injection, schedule: Q04DX003 (ip), vehicle: saline 100 % of control | dose: 200.0 mg/kg/injection, schedule: Q04DX003 (ip), vehicle: saline 99 % of control | dose: 400.0 mg/kg/injection, schedule: Q04DX003 (ip), vehicle: saline 96 % of control

C=CCCCCCCCCCCCCCC1=NCC[N+]1(CCO)CC(O)COc1cc(Cl)c(Cl)c(Cl)c1 (stereo not drawn)
inactive: dose: 12.5 mg/kg/injection, schedule: Q01DX009 (ip), vehicle: saline 102 % of control | dose: 25.0 mg/kg/injection, schedule: Q01DX009 (ip), vehicle: saline 106 % of control | [1] 105 % of control and 108 % of control | [2] 90 % of control

CSc1nnc(CCC(=O)Nc2c(C)cccc2C(C)(C)C)o1
inactive: [6] 104 % of control | [7] 99 % of control | [8] 91 % of control

Nc1ccccc1C(=O)CC1OC(=O)c2ccccc21 (stereo not drawn)
inactive: [6] 105 % of control | [7] 105 % of control | [8] 97 % of control

COc1ccc2c(c1)CN(CCc1ccc([N+](=O)[O-])cc1)CO2
inactive: [11] 96 % of control | [12] 94 % of control | [13] 96 % of control

N#CC1C(=O)NC(=S)NC1c1ccco1 (stereo not drawn)
inactive: [16] 100 % of control | [17] 95 % of control | [18] 92 % of control

CN(C)P1(=O)OCC(C(C)(C)C)CN1c1ccccc1 (stereo not drawn)
inactive: dose: 100.0 mg/kg/injection, schedule: Q04DX003 (ip), vehicle: Klucel (hydroxypropylcellulose) (HPC) 97 % of control | dose: 200.0 mg/kg/injection, schedule: Q04DX003 (ip), vehicle: Klucel (hydroxypropylcellulose) (HPC) 97 % of control

NC(=O)c1ccc(=O)n(C2OC(CO)C(O)C2O)c1 (stereo not drawn)
inactive: [9] 102 % of control | [10] 102 % of control | dose: 200.0 mg/kg/injection, schedule: Q04DX003 (ip), vehicle: saline with Tween-80 100 % of control | dose: 400.0 mg/kg/injection, schedule: Q04DX003 (ip), vehicle: saline with Tween-80 102 % of control

COC(=O)C1(C)CCCC2(C)c3cc(OC)ccc3C3(CC12)SCCS3 (stereo not drawn)
inactive: dose: 10.0 mg/kg/injection, schedule: Q01DX009 (ip), vehicle: saline with Tween-80 95 % of control | dose: 20.0 mg/kg/injection, schedule: Q01DX009 (ip), vehicle: saline with Tween-80 99 % of control | dose: 40.0 mg/kg/injection, schedule: Q01DX009 (ip), vehicle: saline with Tween-80 103 % of control
